Reference: article PMC6423038, “Deferiprone: Pan-selective Histone Lysine Demethylase Inhibition Activity and Structure Activity Relationship Study” (Scientific Reports, 2019)

Experiments:
T47D cells = assay: Viability of T47D cells at three concentrations; assay type: cell-based, human; conditions: Fig. S9
Protocol: To determine the antitumor potential of the DFP-based KDM inhibitors, we investigated the efficacy of a representative example, 2j, in two murine xenograft models of BCa. The xenografts were established using two human BCa cell lines – T47D (ER(+)) and MDA-MB-231 (ER(−)). […] Because our in vitro study was conducted using MCF-7 as a model of ER(+) cell, we first tested the effect of 2j on the viability of T47D cells at three concentrations. […] The effect of 2j on T47D viability mirrored that of its effect on MCF-7, confirming preferential cytotoxicity of the DFP-based agents […]. Once we established that T47D cells are sensitive to 2j, xenografts of T47D and MDA-MB-231 were established in female athymic nude mice (8-week old) by injection of cells (1 × 10^7) into the mammary fat pad as described previously[37],[38]. After the tumor volume reached ~250 mm^3, mice were treated with 2j (25 mg/kg body weight) for 8 weeks. […] Relative to control, 2j caused approx. 81% (4426 vs 884 mm^3) and 70% (5116 vs 1536 mm^3) reduction in the growth of T47D and MDA-MBMB-231 tumors, respectively.

MCF-7 = assay: Cell viability assay (MTS), antiproliferative activity; assay type: cell-based; conditions: Homo sapiens, MCF7, 72 h
Protocol: (§1) To preliminarily profile the bioactivity of these compounds, we adopted a streamlined approach which involved screening against KDM6A at two concentrations and evaluating antiproliferative activity against three representative cell lines – MCF-7 (ER(+) BCa), MDA-MB-231 (TNBC BCa) and Vero (a non-transformed cell line as control).
(§2) The In vitro proliferation assay was performed as reported previously[15],[16]. Detailed description of the protocol used is included in the Supplementary Information.
(§3) Cell Viability Assay. All cell lines were purchased form ATCC (Manassas, VA), and they were routinely cultured in different media recommended by the supplier. MCF-7 cells were cultured in non-phenol red DMEM (Corning, Manassas, VA) fortified with 10% charcoal treated fetal bovine serum (FBS; Atlanta Biologicals, GA) and 0.2 mM glutamine (Corning, Manassas, VA), whereas MDA-MB-231, DU-145, and Vero were cultured in DMEM with 10% FBS. […] After 24 h incubation in 37 °C under 5% CO2, cells were treated with serially diluted ligands with final DMSO concentration of 1% and incubated for additional 72 h. MTS (CellTiter 96 Aqueous One Solution Cell Proliferation Assays, Promega, Madison, WI) was added to each well 2.5 h prior to recording the absorbance at 490 nm.

VERO = assay: as above; assay type: cell-based; conditions: Chlorocebus sabaeus, 72 h
Protocol: as §1, §2, §3

MDA-MB-231 = assay: as above; assay type: cell-based; conditions: Homo sapiens, 72 h
Protocol: as §1, §2, §3

KDM6A (UTX) = biological target: T1, KDM6A (UTX) (Homo sapiens, UniProt O15550); assay: KDM cell-free assay (AlphaScreen, BPS Bioscience); assay type: biochemical; conditions: for IC50: Fig. 9A, read-out: IC50 (KDM6A inhibition dose response curve)
T1 construct: purchased BPS Bioscience

[1] = test system: HP1-mediated heterochromatin gene repression in CiA:Oct4 embryonic stem cells; assay: HP1-recruitment assay dose curve (CiA:Oct4, with CIP-rapamycin), flow cytometry; assay type: cell-based, mouse; conditions: 48 h with CIP-rapamycin recruitment of HP1; for concentration reaching maximum inhibition of heterochromatin formation / gene repression: doses 250 nM–10 µM
From the text: To elucidate the effect of DFP-based KDM inhibitors on chromatin dynamics, we profiled them in an intracellular assay which measures heterochromatin formation speed. The chromatin in vivo assay (CiA) leverages chemical induced proximity (CIP) to recruit heterochromatin protein 1 (HP1) to a modified Oct4 locus. This reporter system is composed of tandem arrays of Gal4 and zinc finger DNA binding domains in the promoter of one allele of Oct4, where the gene was replaced by a nuclear eGFP reporter. Protein fusions of Gal4-FKBP and FRB-HP1 allow for direct chemical recruitment of HP1 to the CiA:Oct4 reporter locus upon addition of the chemical inducer of proximity (CIP)-rapamycin. After CIP-rapamycin addition, HP1 is recruited to the reporter locus and brings histone methyltransferase enzymes to the chromatin reporter resulting in the repressive H3K9me3 mark being deposited (Fig. 10A). H3K9me3 deposition is the signature mark of heterochromatin and is coupled with gene silencing and loss of GFP expression (Fig. 10B)[33]. Others have shown that H3K4me3 marked nucleosomes impede H3K9 methyltransferase activity. Thus, we postulate that the active H3K4me3 mark must be removed by KDM enzymes as part of the transformation from euchromatin to heterochromatin. Inhibition of KDMs, specifically those targeting H3K4me3, would result in a decrease in H3K9me3 accumulation, which would be measured in our assay as an increase in GFP positive cells.
To determine the effect of DFP-based KDM inhibitors on HP1-mediated gene repression, we treated CiA:Oct4 embryonic stem (ES) cells with doses of representative compounds ranging from 10 µM–250 nM for 48 h with CIP-rapamycin recruitment of HP1 (Fig. 10C). […] The percentage of GFP(+) cells was determined by flow cytometry as indicated in representative histograms (Supplemental Fig. S8).
(§4) Day 0, CiA:Oct4 N118/163 cells were grown in ES media and seeded at a density of 10,000 cells per well in 100 μL media (100,000 cells mL^−1) on gelatin coated 96 well plates. Day 1, culture media was aspirated and replaced with 100 µL ES media containing +/− 6 nM rapamycin. 10 µM, 5 µM, 2.5 µM, 1 µM, 500 nM, and 250 nM concentrations of compound or DMSO were added using a TTP Labtech Mosquito HTS liquid handler. Days 2, fresh ES media +/− rapamycin and compound were added as in Day 1. Day 3, cells were washed with PBS and trypsinized using 0.25% trypsin-EDTA. Trypsin was quenched with serum. Cells were resuspended by pipetting in preparation for flow cytometry analysis.
(§5) Flow cytometry data was acquired using the Intellicyt iQue Screener and analyzed with FlowJo software.
The CiA:Oct4 recruitment system in mouse embryonic stem cells contains Gal4 and Zinc finger DNA binding arrays and a downstream nuclear eGFP gene in place of a single Oct4 allele as previously described.^30 The CiA:Oct4 N118/N163 cell line containing viral integrations of N118 and N163 plasmids (N118- nLV EF-1α-Gal-FKBPx1-HA-PGK-Blast, N163- nLV EF-1α-HP1α (CS)-Frbx2(Frb+FrbWobb)-V5-PGK-Puro) was used for inhibition of HP1-mediated heterochromatin studies. All plasmids are freely available on addgene.
(§6) HP1-Recruitment Assay Dose Curve. Day 0, CiA:Oct4 N118/163 cells were grown in ES media and seeded at a density of 10,000 cells per well in 100 µL media (100,000 cells mL^-1) on gelatin coated 96 well plates. Day 1, culture media was aspirated and replaced with 100 µL ES media containing +/- 6 nM rapamycin. 10 µM, 5 µM, 2.5 µM, 1 µM, 500 nM, and 250 nM concentrations of compound or DMSO were added using a TTP Labtech Mosquito HTS liquid handler. Days 2, fresh ES media +/- rapamycin and compound were added as in Day 1. Day 3, cells were washed with PBS and trypsinized using 0.25% trypsin-EDTA. Trypsin was quenched with serum. Cells were resuspended by pipetting in preparation for flow cytometry analysis.
Flow Cytometry and Analysis.

MDA-MB-231 tumors = assay: Mouse xenograft assay, MDA-MB-231 (ER(−)); assay type: in vivo; conditions: MDA-MB-231 xenograft
[2] = test system: Oct4 GFP expression in CiA:Oct4 embryonic stem cells; assay: CiA:Oct4 reporter dose response without HP1 recruitment (no CIP-rapamycin), flow cytometry; assay type: cell-based, mouse; conditions: 48 h without HP1 recruitment; for decrease in the percentage of GFP(+) cells: at 2.5 µM
From the text: Embryonic stem cells are sensitive to environmental stimuli which may trigger cell differentiation. During mammalian stem cell differentiation or exposure to toxic compounds, Oct4 is known to be repressed as cells lose reinforcement of the pluripotency transcriptional activation network[35],[36]. Therefore, the CiA:Oct4 reporter without CIP-recruitment of HP1 functions is a valid system to determine how much cell differentiation or toxicity is occurring by measuring the GFP expression levels. To elucidate the effect of DFP-based KDM inhibitors on Oct4 GFP expression in the absence of HP1 recruitment, we performed dose response studies without addition of CIP-rapamycin (Fig. 11A).
as §4, §5, §6
Flow Cytometry and Analysis. Flow cytometry data was acquired using the Intellicyt iQue Screener and analyzed with FlowJo software. Cell populations were gated based on forward and side scatter height. Single cell populations were gated using forward scatter area by forward scatter height. Autofluorescent cells were excluded and the remaining cells were gated into GFP (-) and GFP (+) populations based on DMSO control samples.

[3] = Table 5, values calculated by linear regression

T1 sequence (O15550 whole entry): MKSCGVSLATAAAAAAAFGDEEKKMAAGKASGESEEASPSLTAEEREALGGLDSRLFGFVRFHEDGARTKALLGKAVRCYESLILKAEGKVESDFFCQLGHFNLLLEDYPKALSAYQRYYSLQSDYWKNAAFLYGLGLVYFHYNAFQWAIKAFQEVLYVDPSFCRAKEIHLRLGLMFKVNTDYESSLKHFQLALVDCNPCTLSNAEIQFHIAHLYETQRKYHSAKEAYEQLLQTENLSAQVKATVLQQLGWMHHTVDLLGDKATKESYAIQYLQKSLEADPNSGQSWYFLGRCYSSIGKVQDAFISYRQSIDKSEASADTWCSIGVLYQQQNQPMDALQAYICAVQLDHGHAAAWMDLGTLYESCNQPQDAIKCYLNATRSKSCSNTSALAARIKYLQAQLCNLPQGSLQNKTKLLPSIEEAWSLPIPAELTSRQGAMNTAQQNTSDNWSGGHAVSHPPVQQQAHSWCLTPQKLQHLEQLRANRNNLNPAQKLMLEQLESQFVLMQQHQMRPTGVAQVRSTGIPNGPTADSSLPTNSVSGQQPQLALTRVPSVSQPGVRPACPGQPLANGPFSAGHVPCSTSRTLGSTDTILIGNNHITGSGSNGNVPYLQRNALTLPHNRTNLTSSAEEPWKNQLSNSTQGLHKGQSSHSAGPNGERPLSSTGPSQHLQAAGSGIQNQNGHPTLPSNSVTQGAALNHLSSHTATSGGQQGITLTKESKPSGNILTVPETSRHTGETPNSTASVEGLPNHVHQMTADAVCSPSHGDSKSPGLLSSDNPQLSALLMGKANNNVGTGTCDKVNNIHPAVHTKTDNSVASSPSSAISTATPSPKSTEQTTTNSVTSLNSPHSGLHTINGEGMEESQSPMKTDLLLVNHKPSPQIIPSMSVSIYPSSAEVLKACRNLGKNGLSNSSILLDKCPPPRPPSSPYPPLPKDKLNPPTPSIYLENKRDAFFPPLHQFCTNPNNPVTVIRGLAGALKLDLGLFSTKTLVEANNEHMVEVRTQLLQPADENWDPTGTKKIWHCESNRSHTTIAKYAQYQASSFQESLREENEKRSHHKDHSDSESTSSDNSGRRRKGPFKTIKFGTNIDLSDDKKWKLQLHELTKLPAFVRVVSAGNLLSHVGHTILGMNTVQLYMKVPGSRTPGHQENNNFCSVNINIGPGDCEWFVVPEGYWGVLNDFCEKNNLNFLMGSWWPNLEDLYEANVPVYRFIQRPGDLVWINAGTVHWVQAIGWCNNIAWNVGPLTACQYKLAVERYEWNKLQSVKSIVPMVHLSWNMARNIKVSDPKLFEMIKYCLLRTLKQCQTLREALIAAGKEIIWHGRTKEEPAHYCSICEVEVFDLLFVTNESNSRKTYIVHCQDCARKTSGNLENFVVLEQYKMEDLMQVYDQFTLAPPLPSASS

IC50 (MCF-7; [3]) [µM]	IC50 (MDA-MB-231; Table 5) [µM]	inhibition at 1 µM (KDM6A (UTX); Table 2) [%]	inhibition at 10 µM (KDM6A (UTX); Table 2) [%]	IC50 (KDM6A (UTX)) [µM]	IC50 (MCF-7; Table 5) [µM]	IC50 (MCF-7; Table 6, values calculated by linear regression) [µM]	IC50 (MDA-MB-231; Table 6) [µM]	inhibition at 1 µM (KDM6A (UTX); Table 3) [%]	inhibition at 10 µM (KDM6A (UTX); Table 3) [%]	SMILES	growth of T47D cells (T47D cells)	IC50 (VERO; Table 5) [µM]	increase in the number of GFP positive cells [1] [%]	reduction in the growth of tumors relative to control (MDA-MB-231 tumors; athymic nude mice, 25 mg/kg body weight for 8 weeks) [%]	tumor volume (MDA-MB-231 tumors; 25 mg/kg for 8 weeks, control 5116 mm^3) [mm^3]	concentration reaching maximum inhibition of heterochromatin formation / gene repression [1] [µM]	decrease in percentage GFP(+) cells ([2]; only at the 10 µM dose)	decrease in the percentage of GFP(+) cells [2]	IC50 (VERO; Table 6) [µM]
34.1	10.6	8	100	3.2						COc1cccc(-c2cn(CCCCCn3ccc(=O)c(O)c3C)nn2)c1 [2j]	dose-dependent reduction	> 50	20	~70	1536				
37.6	3.6	8	99							Cc1c(O)c(=O)ccn1CCCCCn1cc(-c2ccc(-c3ccncc3)cc2)nn1 [2t]		29.2				10	~ 20%		
	2.5	12	49		> 50					Cc1c(O)c(=O)ccn1CCCCCCn1cc(-c2ccc(-c3ccccc3)cc2)nn1 [2v]		4.9				1		~ 30%	
	1.2	16	57		> 50					COc1ccc2cc(-c3cn(CCCCCCn4ccc(=O)c(O)c4C)nn3)ccc2c1 [2w]		3.9				1		~ 30%	
				1.7		31.1	3.5	9	100	Cc1c(O)c(=O)ccn1C1CCC(CC2CCC(n3ccc(=O)c(O)c3C)CC2)CC1 (stereo not drawn) [3g]						2.5		~ 30%	> 50
